Patent US9464064B2, “HCV helicase inhibitors and methods of use thereof” (University of Kansas, priority 2011, dated 2016)

Experiments:
[1] = Chemical stability (hydrolytic); assay type: physicochemical; conditions: PBS with 50% acetonitrile, pH 7.4; % remaining after 48 hours at room temperature
Procedure: The stability of compounds in 1×PBS, pH 7.4, and at room temperature, was determined. Stability was also assessed in the presence of 50% ACN. Compounds were diluted and time 0 hour aliquots were collected and transferred to acetonitrile (spiked with an internal standard). The remainder of the volume was incubated for 48 hours, with additional aliquots collected at different time points (6 total). The amount of compound was determined by LC/MS/MS. The parent compound remaining was calculated by the following formula: % parent compound remaining=[(concentration at x hour/concentration at 0 hour)×100]. Results are the mean of each reaction triplicate, normalized to the internal standard, and expressed as a percent compound remaining after 48 hours.

[2] = Hepatic microsome stability, human; assay type: in vitro ADME; conditions: percent remaining at 1 hour
Procedure: (§1) Metabolic stability was assessed in the presence of human liver microsomes (XenoTech) and mouse liver mirosomes (XenoTech). All liquid was dispensed and transfer steps were performed with the FREEDOM EVO automated liquid handler (Tecan US). NADPH, a required cofactor for CYP450 metabolism, was provided by the NADPH Regenerating System, Solutions A (BD Biosciences) and B (BD Biosciences). Compound stock solutions were initially prepared in 100% DMSO and subsequently diluted in acetonitrile for the assay. The pH of the reactions was kept at ˜7.4 with potassium phosphate buffer (BD Biosciences). The reactions were started after adding NADPH to the reaction plate containing microsomes and compounds and time 0 minutes aliquots were promptly collected and mixed with ice cold acetonitrile (spiked with internal standards) to quench the reactions. The remainder of the reaction volume was incubated at 37° C. with shaking. […] The amount of compound in the supernatant was determined by LC/MS/MS (Applied Biosystems, Sciex API4000 Q-TRAP) and the percent of parent compound remaining after 60 minutes was calculated by the following formula: % parent compound remaining=[(concentration at 60 minutes/concentration at 0 minutes)×100]. […] Results reported are the mean of each reaction triplicate, normalized to the internal standard, and expressed as a percent compound remaining after the incubation time. […]

[3] = Plasma stability, human; assay type: in vitro ADME; conditions: percent remaining at 3 hours
Procedure: (§2) Stability of compounds in human plasma (BioChemed Services) and mouse plasma (BioChemed Services) were determined. All liquid was dispensed and transfer steps were performed with the FREEDOM EVO automated liquid handler (Tecan US). Plasma was allowed to thaw at room temperature prior to preparing the assay solution of plasma:1×PBS (1:1). The assay solution was warmed up at 37° C. prior of adding the compound. Immediately after compounds were added, time 0 minute aliquots were promptly collected and mixed with cold acetonitrile (spiked with an internal standard). The remainder of the reaction volume was incubated at 37° C. with shaking. Additional aliquots were collected 180 minutes after the start of the reaction and promptly quenched with cold acetonitrile (spiked with an internal standard). Samples were centrifuged at 3000 rpm for 10 minutes. The amount of compound in the supernatant was determined by LC/MS/MS (Applied Biosystems, Sciex API4000 Q-TRAP) and the percent of parent compound remaining after 180 minutes was calculated by the following formula: % parent compound remaining=[(concentration at 180 minutes/concentration at 0 minutes)×100]. Results reported are the mean of each reaction duplicate, normalized to the internal standard, and expressed as a percent of compound remaining after the incubation time. […]

[4] = Plasma stability, mouse; assay type: in vitro ADME; conditions: percent remaining at 3 hours
Procedure: as §2

[5] = Hepatic microsome stability, mouse; assay type: in vitro ADME; conditions: percent remaining at 1 hour
Procedure: as §1

[6] = test system: NS5A in Huh7.5/HCV Con1sg Rluc replicon cells; assay: Western blot of NS5A in replicon cells; assay type: cell-based, hepatitis C virus; conditions: 4-day exposure
Procedure: To analyze effects on HCV proteins expression by western blot, Huh7.5/HCV Con1sg Rluc replicon stable cells were washed with PBS, harvested in PBS, and lysed with RIPA buffer for 20 minutes on ice and cleared lysates were obtained by centrifugation at 14,000 rpm for 20 minutes at 4° C. Protein concentrations were determined with the BIO-RAD protein assay kit (Bio-Rad) and 15 μg total proteins was resolved on 10% sodium dodecyl sulfate-polyacrylamide gel electrophoresis (SDS-PAGE) and transferred to nitrocellulose membrane. The blots were probed with primary anti-NS5A mAb (Meridian life Sciences, Saco, Me.) and a peroxidase-conjugated secondary antibody (Cell Signaling, Danvers, Mass.) and were developed with enhanced chemiluminescence (ECL) detection reagents (Pierce, Rockford, Ill.). The blots were stripped and probed again with primary anti-tubulin antibody (Sigma) to confirm equal loading of protein and a peroxidase-conjugated anti-mouse secondary antibody (Cell Signaling) and developed with ECL reagents (Pierce).
To further characterize the anti-viral activity of this class of compounds, HCV Renilla luciferase (Rluc) subgenomic replicon cells were exposed to different concentrations of compound 24 and the effect of compound 24 on HCV replication was assessed on HCV Rluc reporter gene activity. […]

SMILES	Aqueous Stability [1] [%]	Hepatic Microsome Stability Human [2] [%]	Plasma Stability Human [3] [%]	Plasma Stability Mouse [4] [%]	Hepatic Microsome Stability Mouse [5] [%]	cellular NS5A levels [6]
Cc1ccc2nc(-c3ccc4nc(-c5ccc(NC(=O)c6cccc(Cl)c6)cc5)sc4c3)sc2c1S(=O)(=O)O [Compound 17, 2′-(4-(3-chlorobenzamido)phenyl)-6-methyl-[2,6′-bibenzo[d]thiazole]-7-sulfonic acid]	100	83.57	96.6	95.0	83.11	–
Cc1ccc2nc(-c3ccc4nc(-c5ccc(NC(=O)c6cc(C(F)(F)F)cc(C(F)(F)F)c6)cc5)sc4c3)sc2c1S(=O)(=O)O [Compound 24, 2′-(4-(3,5-bis(trifluoromethyl)benzamido)phenyl)-6-methyl-[2,6′-bibenzo[d]thiazole]-7-sulfonic acid]	–	–	–	–	–	reduced NS5A levels in a time-dependent manner
